# Assay results from US11008325B2, “Inhibitors of cancer invasion, attachment, and/or metastasis” (VIRGINIA COMMONWEALTH UNIVERSITY, priority 2016, dated 2021).
# “Also recorded” adds a separate entry of the source.
# Experiments:
# [1] = migration (SAR, Table 4); format: cell-based
# [2] = test system: IGF-1R and STAT3; test: western blot after hIGFBP-2 stimulation; format: cell-based; conditions: dose- and time-dependent
# Procedure: FIGS. 17A-17H. Effect of PDZ1i on invasion, MDA-9/IGF-R1 interaction and IGF-R1, STAT3 and SRC phosphorylation. FIG. 17A) Different cancer cells (25,000 cells/well) from various anatomic origins were pre-treated with either DMSO (vehicle) or PDZ1i (dose as indicated) and invasion ability was assayed using modified Boyden Chamber according to the manufacturer's instructions. Photomicrographs were taken at 10× magnification and quantification of the results of three independent experiments is provided in the graphs. The data presents mean±S.D. B) The designated cells were treated with DMSO or PDZ1i and invasion properties were determined using a modified Boyden Chamber assay (BD bioscience). RWPE-1 mda-9: mda-9 transiently overexpressing cell line. […] FIG. 17E) Cells were growth starved for 24 h and treated with either DMSO or PDZ1i (dose indicated in μM) for 6 h. Cells were treated with human recombinant IGFBP-2 (hIGFBP-2, 10 ng/ml) for 2 h, lysates were prepared and western blot analysis was conducted with specific antibodies. FIG. 17F) Cells were serum-starved for 24 h and treated with either DMSO or PDZ1i (20 μM) for 6 h. […] Cells were treated with human recombinant […] (hIGFBP-2, 1 ng/ml) for 2 h, cell lysates were prepared and analyzed by western blotting. […]
# [3] = test system: PDZ domain from X11/mint scaffold protein; test: NMR [15N,1H] HSQC counter screen; format: binding; conditions: 20 μM protein, 100 μM 113B7
# Procedure: FIGS. 4A-4E. FIG. 4A. Chemical structures of the two initial fragment hits (top) and the structure of the resulting molecule 113B7 (PDZ1i). FIG. 4B. Superposition of 2D [^15N, ^1H]-HSQC spectra of 50 μM MDA-9 PDZ12 tandem domain in the absence and presence of 350 μM 113B7. FIG. 4C. Binding curve and representative spectra for the titration of 113B7 against MDA-9 PDZ12 tandem domain. Top: Zoom of box region in FIG. 4B after titrating 113B7 into Mda9 PDZ, tandem domain. The cross peak corresponding to the backbone amide of residue A147 experiences a gradual shift upon the addition of 113B7. Bottom: Titration curve of 113B7 for residue A147. The dissociation constant for the binding of 113B7 to MDA-9 was calculated to be 21.37±8.62 μM. FIG. 4D. Superposition of 2D [^15N, ^1H]-HSQC spectra of 50 μM PDZ domain from X11/mint scaffold protein ([…]; 33% identity with PDZ1) are shown in absence and in presence of […] 113B7. […] FIG. 4E. Docked structure of 113B7 in complex with MDA-9 PDZ tandem domain (PDB: 1W9E). The pose was obtained with GOLD. Two PDZ domains of MDA-9 are labeled.
# FIG. 52. Left panel, Docked structure of compound 113B7 on the surface of MDA-9/Syntenin. The docked structure is supported by NMR chemical shift mapping data. […]
# [4] = test system: EGFR; test: EGFR activation in PC cells; format: cell-based
# Procedure: Considering the key role of MDA-9/IGF-1R interactions in STAT-3 activation, which has a decisive impact on PC progression, small molecule inhibitors that bind to MDA-9 were tested for their ability to specifically interrupt MDA-9/IGF-1R interactions thereby affecting STAT3 activation and PC invasion. […] In PC cells, PDZ1i-mediated downregulation of c-Src activation is partially IGF-1R dependent. Another tyrosine kinase, EGFR, which is also an interacting partner of MDA-9, has been reported to activate c-Src in PC.
# [5] = toxicity in vivo in pre-clinical animal models; conditions: listed as PDZ1i
# [6] = target: T1, MDA-9/Syntenin and c-Src interactions (Homo sapiens, UniProt O00560); test: co-immunoprecipitation in C8161.9 cells; format: cell-based
# T1 construct: endogenous in cells; host or cells: C8161.9 melanoma cells
# T1 sequence (O00560 2-298 limits assumed): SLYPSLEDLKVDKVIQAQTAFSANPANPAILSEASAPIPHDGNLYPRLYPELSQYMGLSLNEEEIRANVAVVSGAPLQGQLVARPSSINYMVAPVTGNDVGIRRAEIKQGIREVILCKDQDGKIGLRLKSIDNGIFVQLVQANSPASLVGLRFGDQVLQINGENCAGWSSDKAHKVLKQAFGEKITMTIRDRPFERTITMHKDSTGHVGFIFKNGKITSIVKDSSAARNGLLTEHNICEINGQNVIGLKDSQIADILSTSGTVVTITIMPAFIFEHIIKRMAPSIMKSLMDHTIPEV
# T1 sequence (P12931 2-536 partner limits assumed): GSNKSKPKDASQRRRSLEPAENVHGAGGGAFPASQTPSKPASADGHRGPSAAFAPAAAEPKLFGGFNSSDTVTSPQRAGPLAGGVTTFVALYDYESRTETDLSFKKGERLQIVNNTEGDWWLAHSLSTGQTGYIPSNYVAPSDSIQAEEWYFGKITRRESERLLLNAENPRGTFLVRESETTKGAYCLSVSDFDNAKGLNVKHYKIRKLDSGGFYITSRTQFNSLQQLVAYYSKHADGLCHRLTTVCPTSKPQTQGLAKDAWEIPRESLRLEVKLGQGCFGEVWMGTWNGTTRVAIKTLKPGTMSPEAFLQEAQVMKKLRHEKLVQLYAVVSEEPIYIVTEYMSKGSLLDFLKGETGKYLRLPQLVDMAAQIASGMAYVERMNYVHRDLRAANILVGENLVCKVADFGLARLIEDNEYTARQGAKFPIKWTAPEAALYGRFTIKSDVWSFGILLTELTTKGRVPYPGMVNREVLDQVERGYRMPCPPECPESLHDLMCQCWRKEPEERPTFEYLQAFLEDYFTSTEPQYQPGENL
# Procedure: FIG. 54. Effects of PDZ1in (113B7) on MDA-9/Syntenin and c-Src interactions. C8161.9 cells were pre-treated with either DMSO or a dose of 113B7 (as indicated) and re-plated onto fibronectin-coated plates. After 30 minutes, cell lysates were immunoprecipitated and immuneblotted with the indicated antibodies. IgG, immunoglobulin.
# Another fundamental issue that we will address as part of the proposed hit-to-lead optimization process is the specificity of the binding of 113B7 to the PDZ1 domain of MDA-9/Syntenin. […] To determine if the PDZin molecule alters physical binding we performed co-immunoprecipitation analysis with c-Src and MDA-9/Syntenin in the presence or absence of 113B7 (FIG. 54). In the case of 113B7, which binds to PDZ1 and the interdomain of MDA-9/Syntenin, no inhibition of c-Src binding was evident.
structure (smiles),measurement,setting,value
"Cc1cc(NC(=O)c2nc3[nH]c4c(c(=O)n3n2)CCC4)c(C)cc1NC(=O)CCc1nnc(-c2ccccc2)o1 [113B7, N-(2,5-dimethyl-4-(3-(5-phenyl-1,3,4-oxadiazol-2-yl)propanamido)phenyl)-8-oxo-5,6,7,8-tetrahydro-4H-cyclopenta[d][1,2,4]triazolo[1,5-a]pyrimidine-2-carboxamide]",% migr.,[1],62%
same,IGF-1R and STAT3 activity,[2],down regulates
same,binding to X11/mint PDZ domain,[3],No appreciable binding is detected
same,EGFR activation,[4],did not have any effect
same,toxicity / tolerability in vivo,[5],well-tolerated; also recorded: no apparent toxicity
same,c-Src binding to MDA-9/Syntenin,[6],no inhibition
